Results: article PMC3949622, “Macrocyclic Pyridyl Polyoxazoles: Structure-Activity Studies of the Aminoalkyl Side-Chain on G-Quadruplex Stabilization and Cytotoxic Activity” (Molecules, 2013)
Where two headings read alike, the source gives them in different places. Marks after values point to notes of the source that are not given here.

What was measured:
RPMI 8402 cells [1] = conditions: range given for analogs 1 and 2 together; ref [21]; read-out: IC50 against RPMI 8402 cells; cited from earlier work
Excerpt: (§1) Table 2 Relative cytotoxic activities. IC50 values (μM) ^a. | column: RPMI 8402 || The development of G-quadruplex stabilizers as a potential new class of anticancer agents hinges on the ability to design compounds that stabilize only G-quadruplexes and not other nucleic acid structures such as duplex or triplex DNA [15]. While a diverse array of compounds have been reported to stabilize G-quadruplex DNA [1], most also have some ability to stabilize duplex DNA. The natural product telomestatin for example, is reported to stabilize G-quadruplex DNA with 70:1 selectivity over duplex DNA [16, 17]. In contrast, the synthetic macrocyclic hexaoxazole HXDV (Figure 1) demonst ...

KB3-1 cells [2] = conditions: range given for analogs 1 and 2 together; ref [21]; read-out: IC50 against KB3-1 cells; cited from earlier work
Excerpt: as §1, with “KB3-1 wt.” for “RPMI 8402”

RPMI 8402 cells [3] = assay: MTT cytotoxicity assay, RPMI 8402; format: cell-based, human; conditions: continuous exposure for four days
Experimental: (§2) Each N,N-dimethylamino-substituted macrocycle was also evaluated for cytotoxic activity against a human lymphoblastoma RPMI 8402 and a human epidermoid carcinoma KB3-1 cell line (Table 2). The results from these assays are informative about the relationship of structure to cytotoxic activity among the PyPX macrocyclic G-quadruplex stabilizers. […] An explanation for this observation is not clear at this time. The three-carbon analogs 12 and 22 have nearly equivalent activity at both positions, but these longer-chain analogs are generally lower in activity than the two-carbon analogs. Attachment of the dimethylamino group directly to the phenyl ring (8 and 19) leads to compounds having the greatest cytotoxic potency at their respective points of attachment. […] In general analogs that have an even number (0 or 2) of methylene spacer groups are more cytotoxic than those with an odd number. […] Moving the side-chain away from the phenyl ring and onto an oxazole ring also fails to improve cytotoxic activity.
(§3) Cytotoxicity was determined using the MTT-microtiter plate tetrazolinium assay (MTA). The human lymphoblast RPMI 8402 cell line was provided by Dr. Toshiwo Andoh (Aichi Cancer Center Research Institute, Nagoya, Japan). The KB3-1 cell line was obtained from K.V. Chin (The Cancer Institute of New Jersey, New Brunswick, NJ, USA). The cytotoxicity assay was performed using 96-well microtiter plates. Cells were grown in suspension at 37 °C in 5% CO2 and maintained by regular passage in RPMI medium supplemented with 10% heat inactivated fetal bovine serum, L-glutamine (2 mM), penicillin (100 U/mL), and Streptomycin (0.1 mg/mL). For determination of IC50 values, cells were exposed continuously for four days to varying concentrations of drug, and MTT assays were performed at the end of the fourth day. […] All assays were performed at least twice in six replicate wells.

[4] = Water-solubility (qualitative); format: physicochemical; conditions: qualitative statement, method not given
KB3-1 cells [5] = assay: MTT cytotoxicity assay, KB3-1; format: cell-based, human; conditions: continuous exposure for four days, means of at least two determinations ± standard deviation, read-out: IC50, KB3-1 wt.
Experimental: as §2, §3

[6] = system: human telomeric sequence d[T2G3(T2AG3)3A] (hTel) quadruplex DNA; assay: UV melting of hTel quadruplex DNA (G-quadruplex stabilization); format: binding; conditions: hTel 5 µM strand, drug 20 µM; for ΔTtran, hTel quadruplex DNA: change in Ttran induced by compound, UV melting at 295 nm, pH 7.5, K+ 150 mM, uncertainty ± 0.5 °C; for Ttran, hTel quadruplex DNA: first-derivative UV melting at 295 nm, 10 mM potassium phosphate pH 7.5, total K+ 150 mM, no drug: 64.6
Experimental: (§4) Each compound was evaluated for its ability to selectively bind and stabilize G-quadruplex DNA in the presence of K^+ ions (150 mM). Salmon testes (ST) DNA was employed as a model of duplex DNA and the human telomeric sequence d[T2G3(T2AG3)3A], denoted as hTel, was used as a model of quadruplex DNA. This sequence has been shown by Patel and co-workers, to exist as an intramolecular (3 + 1) G-quadruplex in which three strands are oriented in one direction and the fourth is oriented in the opposite direction in K^+ solution [35]. The first-derivative forms of the UV melting profiles for ST DNA and hTel DNA were recorded in the absence and presence of the various macrocycles. The ligand-induced changes, if any, in the transition temperature (Ttran) corresponding to the maxima (for quadruplex DNA) or minima (for duplex DNA) of these first-derivative melting profiles are listed in Table 1 for each macrocycle. With the exception of 8 which has a slight (<1 °C) destabilizing effect, none of the other macrocycles alters the thermal stability of ST duplex DNA to any significant extent and any observed changes in Ttran are within the experimental uncertainty. This observation is consistent with little or no duplex DNA binding by these macrocycles. Similar behavior has been observed for other macrocyclic pyridyl polyoxazoles. Temperature-Dependent Spectrophotometry. Temperature-dependent absorption experiments were conducted on an AVIV Model 14DS Spectrophotometer (Aviv Biomedical, Lakewood, NJ, USA) equipped with a thermoelectrically controlled cell holder. Quartz cells with a path length of 1.0 cm were used for all the absorbance studies. Temperature-dependent absorption profiles were acquired at either 260 nm (for ST duplex DNA) or 295 nm (for hTel quadruplex DNA) with a 5 s averaging time. The temperature was raised in 0.5 °C increments, and the samples were allowed to equilibrate for 1 min at each temperature setting. In the quadruplex melting studies, the hTel concentration was 5 µM in strand (120 μM in nucleotide). When present in these quadruplex studies, the drug concentrations were 20 µM. In the duplex melting studies the ST DNA concentrations were 15 µM base pair (30 μM in nucleotide) and, when present, the drug concentrations were 15 µM. The buffer for all the UV melting experiments contained 10 mM potassium phosphate (pH 7.5) and sufficient KCl (132 mM) to bring the total K^+ concentration to 150 mM. Prior to their use in the UV melting experiments, all nucleic acid solutions were preheated at 90 °C for 5 min and slowly cooled to room temperature over a period of 4 hr.

[7] = system: Salmon testes (ST) duplex DNA; assay: UV melting of salmon testes duplex DNA; format: binding; conditions: for ΔTtran, salmon testes duplex DNA: change in Ttran induced by compound, UV melting at 260 nm, pH 7.5, K+ 150 mM, uncertainty ± 0.5 °C; for ΔTtran, salmon testes duplex DNA / Ttran, salmon testes duplex DNA: ST DNA 15 µM base pair, drug 15 µM; for Ttran, salmon testes duplex DNA: first-derivative UV melting at 260 nm, 10 mM potassium phosphate pH 7.5, total K+ 150 mM, no drug: 86.6
Experimental: as §4

[8] = system: Salmon testes (ST) duplex DNA; conditions: change in transition temperature of ST duplex DNA; ref [21]; cited from earlier work
Excerpt: Table 1 Effect of various pyridyl polyoxazoles on the thermal stabilities of duplex and quadruplex DNA. | column: Salmon Testes Duplex DNA / ΔTtran (°C) ^a

several tumor cell lines = conditions: ref [18],[20]; read-out: average IC50 towards several tumor cell lines; cited from earlier work
Excerpt: as §1, with “The” for “Table 2 Relative cytotoxic activities. IC50 values (μM) ^a. | column: RPMI 8402 || The”

[9] = means of at least two determinations ± standard deviation

SMILES	IC50 (RPMI 8402 cells [1]) [nM]	IC50 (KB3-1 cells [2]) [nM]	IC50 (RPMI 8402 cells [3]; single determination) [nM]	water-solubility [4]	IC50 (KB3-1 cells [5]) [nM]	ΔTtran, hTel quadruplex DNA [6] [°C]	Ttran, hTel quadruplex DNA [6] [°C]	ΔTtran, salmon testes duplex DNA [7] [°C]	Ttran, salmon testes duplex DNA [7] [°C]	destabilizing effect on ST duplex DNA (thermal stability) ([7]; size of the decrease in Ttran) [°C]	IC50 (RPMI 8402 cells [3]; [9]) [nM]	ΔTtran, salmon testes duplex DNA [8]	IC50 (several tumor cell lines) [nM]
NCCc1cc2cc(c1)CNC(=O)c1coc(n1)-c1coc(n1)-c1cccc(n1)-c1nc(co1)-c1nc(co1)C(=O)NC2 [Compound 1]	90 to 180	30 to 40	–	–	–	–	–	–	–	–	–	–	–
CN(C)c1ccc2cc1CNC(=O)c1coc(n1)-c1coc(n1)-c1cccc(n1)-c1nc(co1)-c1nc(co1)C(=O)NC2 [Compound 8, Pyridyl tetraoxazole macrocycle with a 4-(N,N-dimethylamino) group on the phenyl ring]	–	–	120	significantly less water-soluble	30	20.5	85.1	−0.9	85.7	< 1	–	–	–
CN(C)CCc1ccc2cc1CNC(=O)c1coc(n1)-c1coc(n1)-c1cccc(n1)-c1nc(co1)-c1nc(co1)C(=O)NC2 [Compound 11, Pyridyl tetraoxazole macrocycle with a 4-[2-(N,N-dimethylamino)ethyl] group on the phenyl ring]	–	–	–	–	70 ± 70	24.6	89.2	−0.4	86.2	–	500 ± 400	–	–
CN(C)CCCc1ccc2cc1CNC(=O)c1coc(n1)-c1coc(n1)-c1cccc(n1)-c1nc(co1)-c1nc(co1)C(=O)NC2 [Compound 12, Pyridyl tetraoxazole macrocycle with a 4-[3-(N,N-dimethylamino)propyl] group on the phenyl ring]	–	–	–	–	250 ± 70	7.1	71.7	−0.4	86.2	–	400	–	–
CN(C)c1cc2cc(c1)CNC(=O)c1coc(n1)-c1coc(n1)-c1cccc(n1)-c1nc(co1)-c1nc(co1)C(=O)NC2 [Compound 19, Pyridyl tetraoxazole macrocycle with a 5-N,N-dimethylamino group on the phenyl ring]	–	–	–	significantly less water-soluble	30	15.5	80.1	−0.5	86.1	–	60 ± 10	–	–
CN(C)Cc1cc2cc(c1)CNC(=O)c1coc(n1)-c1coc(n1)-c1cccc(n1)-c1nc(co1)-c1nc(co1)C(=O)NC2 [Compound 20, Pyridyl tetraoxazole macrocycle with a 5-(N,N-dimethylaminomethyl) group on the phenyl ring]	–	–	–	–	5500 ± 700	0.1	64.7	−0.4	86.2	–	7000 ± 4200	–	–
CN(C)CCCc1cc2cc(c1)CNC(=O)c1coc(n1)-c1coc(n1)-c1cccc(n1)-c1nc(co1)-c1nc(co1)C(=O)NC2 [Compound 22, Pyridyl tetraoxazole macrocycle with a 5-[3-(N,N-dimethylamino)propyl] group on the phenyl ring]	–	–	–	–	220 ± 130	28.6	93.2	−0.4	86.2	–	500 ± 100	–	–
CN(C)CCc1oc2nc1C(=O)NCc1cccc(c1)CNC(=O)c1coc(n1)-c1coc(n1)-c1cccc(n1)-c1nc-2co1 [Compound 36, Pyridyl tetraoxazole macrocycle with a single 2-(N,N-dimethylamino)ethyl side chain]	–	–	–	good water-solubility	140 ± 20	4.6	69.2	−0.4	86.2	–	280 ± 40	–	–
CN(C)CCc1oc2nc1C(=O)NCc1cccc(c1)CNC(=O)c1nc(oc1CCN(C)C)-c1coc(n1)-c1cccc(n1)-c1nc-2co1 [Compound 37, Pyridyl tetraoxazole macrocycle with two 2-(N,N-dimethylamino)ethyl side chains]	–	–	–	–	400 ± 100	1.6	66.2	−0.4	86.2	–	1500	–	–
CC(C)[C@@H]1NC(=O)c2coc(n2)-c2coc(n2)-c2coc(n2)[C@H](C(C)C)NC(=O)c2coc(n2)-c2coc(n2)-c2coc1n2 [HXDV, reference compound]	–	–	–	–	350 ± 80	–	–	–	–	–	540 ± 120	0 ^b °C	500
